Legend:
Assay in all cases: relative viability (nuclei count vs DMSO), 5 days (fraction); higher = more cells survive
Salubrinal + Olaparib = compound: O=C(/C=C/c1ccccc1)NC(NC(=S)Nc1cccc2cccnc12)C(Cl)(Cl)Cl [Salubrinal] + O=C(c1cc(Cc2n[nH]c(=O)c3ccccc23)ccc1F)N1CCN(C(=O)C2CC2)CC1 [Olaparib] (partner 8 µM)
Procedure, shortened: (§1)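 Each reported value is a median over duplicate plates. It expresses relative viability: treated-well nuclei count divided by vehicle-well nuclei count. Lung cancer cell lines in 1536-well plates were dosed by pin tool a day after seeding, alone with one drug or with a fixed anchor-drug dose plus five library-drug doses (not always all listed) in √10 steps, and nuclei were counted after 5 days.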

Salubrinal + Crizotinib = compound: O=C(/C=C/c1ccccc1)NC(NC(=S)Nc1cccc2cccnc12)C(Cl)(Cl)Cl [Salubrinal] + C[C@@H](Oc1cc(-c2cnn(C3CCNCC3)c2)cnc1N)c1c(Cl)ccc(F)c1Cl [Crizotinib] (partner 1 µM)
Procedure, shortened: as §1

[1] = compound: Cc1ccc2nc(NCCN)c3ncc(C)n3c2c1 + C[C@]1(O)C[C@@H](c2nc(-c3ccc4ccc(-c5ccccc5)nc4c3)c3c(N)nccn32)C1 [Linsitinib] (partner 1 µM)
Procedure, shortened: as §1

Salubrinal + Pemetrexed = compound: O=C(/C=C/c1ccccc1)NC(NC(=S)Nc1cccc2cccnc12)C(Cl)(Cl)Cl [Salubrinal] + Nc1nc2[nH]cc(CCc3ccc(C(=O)N[C@@H](CCC(=O)O)C(=O)O)cc3)c2c(=O)[nH]1 [Pemetrexed] (partner 0.2 µM)
Procedure, shortened: as §1

Cell Line	relative viability (Salubrinal + Olaparib; first compound 0.08 µM)	relative viability (Salubrinal + Olaparib; first compound 0.253 µM)	relative viability (Salubrinal + Olaparib; first compound 0.8 µM)	relative viability (Salubrinal + Olaparib; first compound 2.53 µM)	relative viability (Salubrinal + Olaparib; first compound 8 µM)	relative viability (Salubrinal + Crizotinib; first compound 0.08 µM)	relative viability (Salubrinal + Crizotinib; first compound 0.253 µM)	relative viability (Salubrinal + Crizotinib; first compound 0.8 µM)	relative viability (Salubrinal + Crizotinib; first compound 2.53 µM)	relative viability (Salubrinal + Crizotinib; first compound 8 µM)	relative viability ([1]; first compound 0.04 µM)	relative viability ([1]; first compound 0.1265 µM)	relative viability ([1]; first compound 0.4 µM)	relative viability ([1]; first compound 1.265 µM)	relative viability ([1]; first compound 4 µM)	relative viability (Salubrinal + Pemetrexed; first compound 0.08 µM)	relative viability (Salubrinal + Pemetrexed; first compound 0.253 µM)	relative viability (Salubrinal + Pemetrexed; first compound 0.8 µM)	relative viability (Salubrinal + Pemetrexed; first compound 2.53 µM)	relative viability (Salubrinal + Pemetrexed; first compound 8 µM)
NCI-H520	0.334	0.361	0.325	0.322	0.338	0.816	0.489	0.771	0.663	0.681	0.997	1.15	0.947	0.884	0.853	0.762	0.523	0.777	0.716	0.734
NCI-H647	0.72	0.372	0.685	0.63	0.453	1.44	0.891	1	1.12	0.905	1.34	1.15	1.22	1.08	1.18	0.199	0.174	0.184	0.196	0.147
NCI-H1792	0.531	–	0.583	0.287	0.408	1.14	–	1.33	0.929	0.859	0.627	0.543	0.484	0.463	0.405	1.07	–	1.24	0.795	0.572
SK-LU-1	0.508	0.452	0.476	0.454	0.378	1.23	0.717	1.1	0.938	0.841	1.18	1.09	1.12	1.16	1.04	0.994	0.721	1.02	0.886	0.94
NCI-H2009	0.758	0.581	0.547	0.685	0.656	1.02	0.972	0.955	0.983	0.976	1.15	1.14	1.22	1.22	1.05	1.08	0.928	1.08	1.02	0.965
LOU-NH91	0.967	0.908	0.897	0.9	0.961	0.787	0.747	0.74	0.756	0.75	0.964	0.865	0.977	0.942	0.959	0.708	0.368	0.5	0.343	0.371
NCI-H2405	0.951	0.879	0.925	0.822	0.928	0.858	0.866	0.922	0.924	0.958	0.942	0.855	0.928	1.03	0.763	1.01	1.16	1.17	1.05	1.07
LCLC-97TM1	0.289	0.345	0.376	0.412	0.383	0.382	0.507	0.446	–	0.364	0.204	0.166	0.185	0.19	0.201	0.169	0.218	0.19	0.158	0.158
NCI-H596	0.768	0.525	0.597	0.668	0.581	1.07	0.901	1.07	1.02	1.05	1.26	1.02	0.869	1.03	1.03	0.493	0.518	0.56	0.509	0.466
H3255	0.618	0.62	0.595	0.526	0.569	1.16	0.823	1.12	0.804	0.775	0.955	0.876	0.819	0.915	0.944	0.562	0.582	0.558	0.557	0.604
NCI-H1437	0.673	0.547	0.665	0.614	0.543	0.975	0.77	1.02	0.909	0.758	0.991	0.932	1.03	0.936	0.821	0.413	0.273	0.292	0.322	0.297
NCI-H358	0.817	0.434	0.724	0.558	0.523	0.559	0.553	0.506	0.51	0.478	0.755	0.769	0.694	0.88	0.665	0.181	0.176	0.157	0.153	0.168
LU99A	0.286	0.29	0.265	0.24	0.222	0.588	0.635	0.657	0.528	0.5	0.568	0.524	0.526	0.561	0.522	0.176	0.205	0.265	0.265	0.185
SK-MES-1	0.769	0.694	0.845	0.605	0.598	1.05	1	1	1.02	0.908	1.08	0.993	1.09	1.05	1.03	0.993	0.784	1.11	0.896	0.914
HCC-827	0.684	0.646	0.647	0.629	0.664	0.901	0.921	0.992	0.475	0.844	0.932	0.936	0.91	0.946	0.938	0.503	0.276	0.278	0.227	0.245
LK-2	0.873	0.659	0.877	0.773	0.694	0.249	0.252	0.247	0.218	0.23	0.561	0.439	0.531	0.194	0.37	0.321	0.24	0.463	0.335	0.254

Reference: the supplement of paper PMC10307832
